This experiment has as its target T1, HEK-Blue-hTLR8 cells (Homo sapiens, UniProt Q9NR97).
T1 construct: expressed in transfected cells; host or cells: HEK-Blue-hTLR8 cells (HEK293-derived reporter line)
T1 sequence (Q9NR97 27-1041): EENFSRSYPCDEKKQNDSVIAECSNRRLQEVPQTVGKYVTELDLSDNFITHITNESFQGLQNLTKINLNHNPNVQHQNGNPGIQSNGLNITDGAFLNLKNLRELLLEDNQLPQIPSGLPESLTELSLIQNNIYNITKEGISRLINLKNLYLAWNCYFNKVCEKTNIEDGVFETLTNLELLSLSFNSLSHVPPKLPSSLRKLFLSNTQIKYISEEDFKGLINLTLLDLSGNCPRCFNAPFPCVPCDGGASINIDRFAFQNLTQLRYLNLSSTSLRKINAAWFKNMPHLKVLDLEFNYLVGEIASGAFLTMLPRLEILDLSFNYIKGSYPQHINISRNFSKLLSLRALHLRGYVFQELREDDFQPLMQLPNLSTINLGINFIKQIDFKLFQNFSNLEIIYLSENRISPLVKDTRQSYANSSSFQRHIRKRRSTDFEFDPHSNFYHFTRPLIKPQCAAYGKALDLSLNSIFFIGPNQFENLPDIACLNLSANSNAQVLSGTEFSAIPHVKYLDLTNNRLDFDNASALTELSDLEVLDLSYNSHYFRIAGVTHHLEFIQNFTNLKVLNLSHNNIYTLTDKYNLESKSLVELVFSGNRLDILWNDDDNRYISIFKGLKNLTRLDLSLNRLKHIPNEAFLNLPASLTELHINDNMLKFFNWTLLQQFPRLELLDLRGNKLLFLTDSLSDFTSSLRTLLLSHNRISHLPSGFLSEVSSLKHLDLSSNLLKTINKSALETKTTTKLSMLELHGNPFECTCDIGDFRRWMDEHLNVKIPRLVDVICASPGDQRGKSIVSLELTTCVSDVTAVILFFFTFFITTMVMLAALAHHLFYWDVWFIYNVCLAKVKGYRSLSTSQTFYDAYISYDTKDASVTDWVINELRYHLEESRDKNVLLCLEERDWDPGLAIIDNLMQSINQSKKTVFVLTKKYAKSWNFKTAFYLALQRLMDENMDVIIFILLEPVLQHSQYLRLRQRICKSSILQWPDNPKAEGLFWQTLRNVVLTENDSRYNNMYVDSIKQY
The experiment is described as follows: HEK-Blue-hTLR8 cell inhibition assay. The format is cell-based. The conditions noted are these: R848 3 µM, 16 h, OD 620 nm, read-out: TLR8 IC50. An outline of the steps: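 Cells were pre-incubated 4 h, then co-treated 16 h at 37 °C with compound (10 doses, 0.5–10000 nM final) plus R848 (0.8 µM for TLR7, 3 µM for TLR8) or ODN2006 (1 µM, TLR9). Reporter OD620 gave inhibition relative to DMSO blank and agonist-only controls; IC50 came from curve fitting.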

On to `CN(C)[C@H]1CC[C@H](c2nnc([C@]34CN(c5ccc(C#N)c6ncccc56)C[C@@]3(C(F)(F)F)C4)o2)CC1` [Compound 21, 5-((1S,5R)-1-(5-((1R,4S)-4-(dimethylamino)cyclohexyl)-1,3,4-oxadiazol-2-yl)-5-(trifluoromethyl)-3-azabicyclo[3.1.0]hexan-3-yl)quinoline-8-carbonitrile], for which the half-inhibitory concentration (IC50) is less than 100 nM.

In the case of `N#Cc1ccc(N2C[C@]3(c4nnc(C5=CCNC5)o4)C[C@]3(C(F)(F)F)C2)c2cccnc12` [Compound 22, 5-((1S,5R)-1-(5-(2,5-dihydro-1H-pyrrol-3-yl)-1,3,4-oxadiazol-2-yl)-5-(trifluoromethyl)-3-azabicyclo[3.1.0]hexan-3-yl)quinoline-8-carbonitrile], the IC50 is less than 100 nM.

`CN1CCC(n2cnc([C@]34CN(c5ccc(C#N)c6ncccc56)C[C@@]3(C(F)(F)F)C4)n2)CC1` [Compound 23, 5-((1S,5R)-1-(1-(1-methylpiperidin-4-yl)-1H-1,2,4-triazol-3-yl)-5-(trifluoromethyl)-3-azabicyclo[3.1.0]hexan-3-yl)quinoline-8-carbonitrile]: the IC50 was less than 100 nM.

Turning to `N#Cc1ccc(N2C[C@]3(c4nnc(C#CCN5CCOCC5)o4)C[C@]3(C(F)(F)F)C2)c2cccnc12` [Compound 24, 5-((1S,5R)-1-(5-(3-morpholinoprop-1-yn-1-yl)-1,3,4-oxadiazol-2-yl)-5-(trifluoromethyl)-3-azabicyclo[3.1.0]hexan-3-yl)quinoline-8-carbonitrile], the IC50 was less than 100 nM.

As for `CN(C)CC#Cc1nnc([C@]23CN(c4ccc(C#N)c5ncccc45)C[C@@]2(C(F)(F)F)C3)o1` [Compound 25, 5-((1S,5R)-1-(5-(3-(dimethylamino)prop-1-yn-1-yl)-1,3,4-oxadiazol-2-yl)-5-(trifluoromethyl)-3-azabicyclo[3.1.0]hexan-3-yl)quinoline-8-carbonitrile], the concentration for half-maximal inhibition (IC50) was less than 100 nM.

On to `CC1(C)CC(Cc2nnc([C@]34CN(c5ccc(C#N)c6ncccc56)C[C@@]3(C(F)(F)F)C4)o2)CC(C)(C)N1` [Compound 26, 5-((1S,5R)-1-(5-((2,2,6,6-tetramethylpiperidin-4-yl)methyl)-1,3,4-oxadiazol-2-yl)-5-(trifluoromethyl)-3-azabicyclo[3.1.0]hexan-3-yl)quinoline-8-carbonitrile], for which the IC50 is less than 100 nM.

Regarding `N#Cc1ccc(N2C[C@]3(c4nnc(N5CCOCC5)o4)C[C@]3(C(F)(F)F)C2)c2cccnc12` [Compound 27, 5-((1S,5R)-1-(5-morpholino-1,3,4-oxadiazol-2-yl)-5-(trifluoromethyl)-3-azabicyclo[3.1.0]hexan-3-yl)quinoline-8-carbonitrile], the IC50 was less than 1000 nM.

On to `CN1CC(Cc2nnc([C@]34CN(c5ccc(C#N)n6ncc(F)c56)C[C@@]3(C(F)(F)F)C4)o2)C1` [Compound 30, 3-fluoro-4-((1S,5R)-1-(5-((1-methylazetidin-3-yl)methyl)-1,3,4-oxadiazol-2-yl)-5-(trifluoromethyl)-3-azabicyclo[3.1.0]hexan-3-yl)pyrazolo[1,5-a]pyridine-7-carbonitrile], for which the half-inhibitory concentration (IC50) is less than 100 nM.

Take `CN1CCC(Oc2nnc([C@]34CN(c5ccc(C#N)n6ncc(F)c56)C[C@@]3(C(F)(F)F)C4)o2)CC1` [Compound 31, 3-fluoro-4-((1S,5R)-1-(5-((1-methylpiperidin-4-yl)oxy)-1,3,4-oxadiazol-2-yl)-5-(trifluoromethyl)-3-azabicyclo[3.1.0]hexan-3-yl)pyrazolo[1,5-a]pyridine-7-carbonitrile]: the concentration for half-maximal inhibition (IC50) was less than 100 nM.

With `N#Cc1ccc(N2C[C@]3(c4nnc(C5(F)CNC5)o4)C[C@]3(C(F)(F)F)C2)c2cccnc12` [Compound 32, 5-((1S,5R)-1-(5-(3-Fluoroazetidin-3-yl)-1,3,4-oxadiazol-2-yl)-5-(trifluoromethyl)-3-azabicyclo[3.1.0]hexan-3-yl)quinoline-8-carbonitrile], the IC50 is less than 100 nM.

In the case of `N#Cc1ccc(N2C[C@]3(c4nnc(C5CCNCC5F)o4)C[C@]3(C(F)(F)F)C2)c2cccnc12` (some centres unmarked) [Compound 33], the IC50 is less than 100 nM.

With `CN1CCC(c2nnc([C@]34CN(c5ccc(C#N)c6ncccc56)C[C@@]3(C(F)(F)F)C4)o2)CC1=O` (some centres unmarked) [Compound 34], the IC50 was less than 1000 nM.

In the case of `N#Cc1ccc(N2C[C@]3(c4nnc(CC5CNC5)o4)C[C@]3(C(F)(F)F)C2)c2cccnc12` [Compound 35, 5-((1S,5R)-1-(5-(azetidin-3-ylmethyl)-1,3,4-oxadiazol-2-yl)-5-(trifluoromethyl)-3-azabicyclo[3.1.0]hexan-3-yl)quinoline-8-carbonitrile], the concentration for half-maximal inhibition (IC50) was less than 1000 nM.

In the case of `CN1CC(Cc2nnc([C@]34CN(c5ccc(C#N)c6ncccc56)C[C@@]3(C(F)(F)F)C4)o2)C1` [Compound 36, 5-((1S,5R)-1-(5-((1-methylazetidin-3-yl)methyl)-1,3,4-oxadiazol-2-yl)-5-(trifluoromethyl)-3-azabicyclo[3.1.0]hexan-3-yl)quinoline-8-carbonitrile], the 50% inhibitory concentration (IC50) is less than 100 nM.

For `CN1CCC(Cc2nnc([C@]34CN(c5ccc(C#N)c6ncccc56)C[C@@]3(C(F)(F)F)C4)o2)CC1` [Compound 37, 5-((1S,5R)-1-(5-((1-methylpiperidin-4-yl)methyl)-1,3,4-oxadiazol-2-yl)-5-(trifluoromethyl)-3-azabicyclo[3.1.0]hexan-3-yl)quinoline-8-carbonitrile], the IC50 was less than 100 nM.

As to `CN1CCC(Cc2nnc([C@]34CN(c5ccc(C#N)c6ncccc56)C[C@@]3(C(F)(F)F)C4)n2C)CC1` [Compound 38, 5-((1S,5R)-1-(4-methyl-5-((1-methylpiperidin-4-yl)methyl)-4H-1,2,4-triazol-3-yl)-5-(trifluoromethyl)-3-azabicyclo[3.1.0]hexan-3-yl)quinoline-8-carbonitrile], the IC50 is less than 1000 nM.

Regarding `CN1CC(c2nnc([C@]34CN(c5ccc(C#N)c6ncccc56)C[C@@]3(C(F)(F)F)C4)o2)C1` [Compound 39, 5-((1S,5R)-1-(5-(1-methylazetidin-3-yl)-1,3,4-oxadiazol-2-yl)-5-(trifluoromethyl)-3-azabicyclo[3.1.0]hexan-3-yl)quinoline-8-carbonitrile], the 50% inhibitory concentration (IC50) was less than 100 nM.

For the compound `N#Cc1ccc(N2C[C@]3(c4nnc(CN5CCOCC5)o4)C[C@]3(C(F)(F)F)C2)c2cccnc12` [Compound 40, 5-((1S,5R)-1-(5-(morpholinomethyl)-1,3,4-oxadiazol-2-yl)-5-(trifluoromethyl)-3-azabicyclo[3.1.0]hexan-3-yl)quinoline-8-carbonitrile], the IC50 was less than 1000 nM.

Take `N#Cc1ccc(N2C[C@]3(c4nnc(CN5CCCC5)o4)C[C@]3(C(F)(F)F)C2)c2cccnc12` [Compound 41, 5-((1S,5R)-1-(5-(Pyrrolidin-1-ylmethyl)-1,3,4-oxadiazol-2-yl)-5-(trifluoromethyl)-3-azabicyclo[3.1.0]hexan-3-yl)quinoline-8-carbonitrile]: the IC50 is less than 1000 nM.

`CN(C)Cc1nnc([C@]23CN(c4ccc(C#N)c5ncccc45)C[C@@]2(C(F)(F)F)C3)o1` [Compound 42, 5-((1S,5R)-1-(5-((dimethylamino)methyl)-1,3,4-oxadiazol-2-yl)-5-(trifluoromethyl)-3-azabicyclo[3.1.0]hexan-3-yl)quinoline-8-carbonitrile]: the IC50 was less than 1000 nM.

For `N#Cc1ccc(N2C[C@]3(c4nnc(CCN5CCOCC5)o4)C[C@]3(C(F)(F)F)C2)c2cccnc12` [Compound 43, 5-((1S,5R)-1-(5-(morpholinoethyl)-1,3,4-oxadiazol-2-yl)-5-(trifluoromethyl)-3-azabicyclo[3.1.0]hexan-3-yl)quinoline-8-carbonitrile], the IC50 was less than 100 nM.

As to `Cn1c(CN2CCCC2)nnc1[C@]12CN(c3ccc(C#N)c4ncccc34)C[C@@]1(C(F)(F)F)C2` [Compound 44, 5-((1S,5R)-1-(4-methyl-5-(pyrrolidin-1-ylmethyl)-4H-1,2,4-triazol-3-yl)-5-(trifluoromethyl)-3-azabicyclo[3.1.0]hexan-3-yl)quinoline-8-carbonitrile], the IC50 was greater than 1000 nM.

As for `N#Cc1ccc(N2C[C@]3(c4nnc(C5CNCC(F)C5)o4)C[C@]3(C(F)(F)F)C2)c2cccnc12` (stereo partly drawn) [Compound 45, 5-((1R,5S)-1-((difluoro-3-methyl)-12-fluoraneyl)-5-(5-(5-fluoropiperidin-3-yl)-1,3,4-oxadiazol-2-yl)-3-azabicyclo[3.1.0]hexan-3-yl)quinoline-8-carbonitrile], the IC50 was less than 100 nM.

These data come from patent EP4806891A1 (Kangbaida (Sichuan) Biotechnology Co., Ltd., priority 2023, dated 2025).
